Here are results for 5 compounds from patent US7579471B2, “Tropane derivatives useful in therapy” (Pfizer, Inc., priority 2002, dated 2009).

For the experiment, the target named is CCR5 receptors (Homo sapiens, UniProt P51681). Put plainly: inhibition of binding of HIV envelope protein (gp120) to CCR5 receptors. Particulars: procedure of Example 1 of EP 1 118 858 A2. The text has this: Biol., 60, 147-52 (1996); by using the intracellular calcium mobilisation assays as described by the same authors; and by their ability to inhibit binding of HIV envelope protein (gp120) to CCR5 receptors according to the procedure described in Example 1 of EP 1 118 858 A2 (pp 85-88). Cell lines expressing the receptor of interest include those naturally expressing the receptor, such as PM-1, or IL-2 stimulated peripheral blood lymphocytes (PBL), or a cell engineered to express a recombinant receptor, such as CHO, 300.19, L1.2 or HEK-293.
Chain of CCR5 receptors (P51681 whole entry): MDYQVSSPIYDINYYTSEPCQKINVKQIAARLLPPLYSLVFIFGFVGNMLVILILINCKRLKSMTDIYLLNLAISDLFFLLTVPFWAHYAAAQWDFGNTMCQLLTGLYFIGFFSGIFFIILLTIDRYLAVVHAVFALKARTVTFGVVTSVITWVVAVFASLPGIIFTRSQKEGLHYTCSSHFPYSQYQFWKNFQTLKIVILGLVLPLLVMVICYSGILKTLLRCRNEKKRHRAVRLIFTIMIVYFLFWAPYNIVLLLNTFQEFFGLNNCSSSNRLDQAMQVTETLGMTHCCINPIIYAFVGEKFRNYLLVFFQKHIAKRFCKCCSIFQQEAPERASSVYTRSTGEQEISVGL
The ability of the compounds of formula (I) to inhibit binding of HIV envelope protein (gp120) to CCR5 receptors was determined by the procedure described in Example 1 of EP 1 118 858 A2.

Setting [1] is: IC50, inhibition of binding of HIV envelope protein (gp120) to CCR5 receptors.

pIC50: −log10 of the molar value. Like-named read-outs stand apart in the source and are kept apart here.

The compound `CC(=O)N[C@@H](CCN1C2CCC1CC(n1c(C)nc3c1CN(C(=O)C(C)C)CC3)C2)c1ccccc1` (stereo partly drawn) [Example 9, N-{(1S)-3-[3-endo-(5-Isobutyryl-2-methyl-4,5,6,7-tetrahydro-3H-imidazo[4,5-c]pyridin-3-yl)-8-azabicyclo[3.2.1]oct-8-yl]-1-phenylpropyl}acetamide] showed a pIC50 under setting [1] of 8.15.

The compound `COC(=O)N[C@@H](CCN1C2CCC1CC(n1c(C)nc3c1CN(C(C)=O)CC3)C2)c1cccc(F)c1` (stereo partly drawn) [Example 17, Methyl (1S)-3-[3-endo-(5-acetyl-2-methyl-4,5,6,7-tetrahydro-3H-imidazo[4,5-c]pyridin-3-yl)-8-azabicyclo[3.2.1]oct-8-yl]-1-(3-fluorophenyl)propylcarbamate] showed a pIC50 under setting [1] of 7.82.

On to `COC(=O)N[C@@H](CCN1C2CCC1CC(n1c(C)nc3c1CCN(C(=O)OC)C3)C2)c1ccccc1` (stereo partly drawn) [Example 30, Methyl 1-endo-(8-{(3S)-3-[(methoxycarbonyl)amino]-3-phenylpropyl}-8-azabicyclo[3.2.1]oct-3-yl)-2-methyl-4,5,6,7-tetrahydro-1H-imidazo[4,5-c]pyridine-5-carboxylate], for which, where the note is “read-out: IC50, inhibition of binding of HIV envelope protein (gp120) to CCR5 receptors”, the negative logarithm of the IC50 (pIC50) was 8.15.

`COC(=O)N1CCc2c(nc(C)n2C2CC3CCC(C2)N3CC[C@H](NC(C)=O)c2cccc(F)c2)C1` (stereo partly drawn) [Example 33, Methyl 1-endo-{8-[(3S)-3-(acetylamino)-3-(3-fluorophenyl)propyl]-8-azabicyclo[3.2.1]oct-3-yl}-2-methyl-4,5,6,7-tetrahydro-1H-imidazo[4,5-c]pyridine-5-carboxylate] showed a negative logarithm of the IC50 (pIC50) under setting [1] of 7.64.

With `COC(=O)N1CCc2c(nc(C)n2C2CC3CCC(C2)N3CC[C@H](NC(C)=O)c2cccc(F)c2)C1` (stereo partly drawn) [Example 44, Methyl 1-endo-{8-[(3S)-3-(acetamido)-3-(3-fluorophenyl)propyl]-8-azabicyclo[3.2.1]oct-3-yl}-2-methyl-4,5,6,7-tetrahydro-1H-imidazo[4,5-c]pyridine-5-carboxylate monohydrate], under setting [1], the pIC50 was 7.85.
